According to patent US11466013B2 (Betta Pharmaceuticals Co., LTD, priority 2018, dated 2022):

How the values were obtained:
ERK1 = ERK1 (Homo sapiens, UniProt P27361); assay: Kinase assay (Caliper, FAM-labeled peptide), ERK1; assay type: biochemical
Summary of the method: (§1)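 Kinase preincubated 10 min at room temperature with serially diluted compound before FAM-labeled peptide plus ATP added; reaction run at 28 °C, then stopped. Substrate conversion read by Caliper mobility shift, normalized to DMSO and low controls, curve-fitted for IC50.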

COLO205 cells = assay: Cell proliferation assay (COLO205), Cell-titer Glo; assay type: cell-based
Description: COLO205 cells were spread into a 96-well plate at 135 μL/well at 2000 cells. After incubating overnight, compound solutions of gradient concentration was prepared, and added 15 μL of DMSO solution of the test compound of each concentration to the cells of each well. The final concentration of the compound was 30000, 10000, 3333.3, 1111.1, 370.4, 123.5, 41.2, 13.7, 4.6, 0 nM (the final concentration of DMSO was 0.5%). 5% CO2 was incubated for 120 h at 37° C. 50 μL of Cell-titer Glo working solution was added to each well, shaked and mixed, and incubated at room temperature for 10 minutes. The multi-functional microplate reader read the luminescence value, and converted the luminescence value reading into inhibition percentage. Inhibition percentage=(maximum value−reading)/(maximum value−minimum value)*100.
The “maximum value” was the DMSO control, the “minimum value” indicates the cell-free control group.
Graphpad Prism software was used to perform curve fitting and obtain IC50 value.

ERK2 = ERK2 (Homo sapiens, UniProt P28482); assay: Kinase assay (Caliper, FAM-labeled peptide), ERK2; assay type: biochemical
ERK2, sequence (P28482 whole entry): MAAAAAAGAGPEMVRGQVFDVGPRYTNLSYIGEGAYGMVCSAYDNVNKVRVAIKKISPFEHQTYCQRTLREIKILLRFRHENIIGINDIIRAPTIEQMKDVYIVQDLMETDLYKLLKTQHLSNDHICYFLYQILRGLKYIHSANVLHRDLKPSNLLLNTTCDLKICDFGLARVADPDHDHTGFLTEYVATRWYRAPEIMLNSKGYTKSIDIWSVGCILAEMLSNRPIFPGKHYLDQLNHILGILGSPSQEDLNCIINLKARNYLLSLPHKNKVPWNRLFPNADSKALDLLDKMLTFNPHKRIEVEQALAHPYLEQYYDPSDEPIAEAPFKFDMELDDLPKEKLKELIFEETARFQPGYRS
Summary of the method: as §1

[1] = Homo sapiens, COLO 205, 120 h incubation

ERK1, sequence (P27361 whole entry): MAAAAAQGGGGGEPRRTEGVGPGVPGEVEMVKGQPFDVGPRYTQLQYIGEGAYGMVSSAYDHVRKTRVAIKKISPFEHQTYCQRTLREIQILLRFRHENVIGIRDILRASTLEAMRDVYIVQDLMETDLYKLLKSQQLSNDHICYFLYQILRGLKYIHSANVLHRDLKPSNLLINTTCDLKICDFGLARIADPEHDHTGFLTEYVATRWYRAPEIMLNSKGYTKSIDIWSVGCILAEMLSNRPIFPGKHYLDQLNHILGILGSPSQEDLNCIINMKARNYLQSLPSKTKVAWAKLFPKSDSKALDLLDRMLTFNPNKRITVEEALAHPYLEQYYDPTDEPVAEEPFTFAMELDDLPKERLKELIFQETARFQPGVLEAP

IC50 (ERK1) [nM]	IC50 (COLO205 cells; [1]) [nM]	IC50 (ERK2) [nM]	SMILES	IC50 (COLO205 cells; 120 h incubation) [nM]
> 300	> 10000	> 300	CC(C)Nc1cc(-c2cc3n(c2)CC(CO)CN(Cc2cccc(Cl)c2)C3=O)c(Cl)cn1 (stereo not drawn) [Example D7, 8-(5-chloro-2-(isopropylamino)pyridin-4-yl)-2-(3-chlorophenylmethyl)-4-(hydroxymethyl)-2,3,4,5-tetrahydro-1h-pyrrolo [1,2-a][1,4]diazepine-1-one, reference compound]	
44	> 10000	26	CC(C)Nc1cc(-c2c[nH]c(C(=O)NCc3cccc(F)c3)c2)c(Cl)cn1 [Example D6, 4-(5-chloro-2-(isopropylamino)pyridine-4-yl)-N-(3-fluorobenzyl)-1h-pyrrole-2-formamide, reference compound]	
0.8	9	0.5	CC(C)Nc1cc(-c2cc3n(c2)CC2(COC2)CN(Cc2ccccc2CO)C3=O)c(Cl)cn1 [Example 6, 8′-(5-Chloro-2-(isopropylamino)pyridin-4-yl)-2′-(2-(hydroxymethyl)benzyl)-2′,3-dihydro-1′H,5′H-spiro[oxetane-3,4′-pyrrolo[1,2-a][1,4]diazepine]-1′-one]	
	28.8	1	COC[C@H]1Cn2cc(-c3cc(Nc4cnn(C)c4)ncc3Cl)cc2C(=O)N1Cc1cc(F)ccc1CO [Example 88, (R)-7-(5-chloro-2-((1-methyl-1h-pyrazole-4-yl)amino)pyridine-4-yl)-2-(5-fluoro-2-(hydroxymethyl)benzyl)-3-(methoxymethyl)-3,4-dihydropyrrolo[1,2-a] pyrazine-1(2H)-one]	
0.4	56.6	0.49	CC(C)Nc1cc(-c2cc3n(c2)CCN(Cc2cc(F)ccc2CO)C3=O)c(Cl)cn1 [Example 18, 7-(5-chloro-2-(isopropylamino)pyridin-4-yl)-2-(5-fluoro-2-(hydroxymethyl)benzyl)-3,4-dihydropyrrolo[1,2-a]pyrazine-1(2H)-one]	
0.34	76.7	0.56	CC(C)Nc1cc(-c2cc3n(c2)CC(O)CN(Cc2cc(F)ccc2CO)C3=O)c(Cl)cn1 (stereo not drawn) [Example 20, 8-(5-chloro-2-(isopropylamino)pyridin-4-yl)-2-(5-fluoro-2-(hydroxymethyl)benzyl)-4-hydroxy-2,3,4,5-tetrahydro-1h-pyrrolo [1,2-a][1,4]diazepine-1-one]	
	28.9	0.66	Cn1nccc1Nc1ncc(C(F)(F)F)c(-c2cc3n(c2)CCN(Cc2cc(F)ccc2CO)C3=O)n1 [Example 164, 2-(5-fluoro-2-(hydroxymethyl)benzyl)-7-(2-((1-methyl-1h-pyrazole-5-yl)amino)-5-(trifluoromethyl)pyrimidin-4-yl)-3,4-dihydropyrrolo[1,2-a] pyrazine-1(2H)-one]	
0.65	50	0.53	CC(C)Nc1cc(-c2cc3n(c2)CC2(CNC2)CN(Cc2ccccc2CO)C3=O)c(Cl)cn1 [Example 24, 8′-(5-Chloro-2-(isopropylamino)pyridin-4-yl)-2′-(2-(hydroxymethyl)benzyl)-2′,3′-dihydro-1′H,5′H-spiro[azetidine-3,4′-pyrrolo[1,2-a][1,4]diazepine]-1′-one]	
0.74	50.8	0.89	CC(C)Nc1cc(-c2cc3n(c2)CC2(COC2)CN(Cc2ccc(F)cc2CO)C3=O)c(Cl)cn1 [Example 13]	
0.47	25	0.4	CC(C)Nc1cc(-c2cc3n(c2)CC2(COC2)CN(Cc2cc(F)c(F)cc2CO)C3=O)c(Cl)cn1 [Example 17]	
	93.7		Cc1cnc(Nc2ccnn2C)nc1-c1cc2n(c1)CCN(Cc1cccc(F)c1)C2=O [Example D5, 2-(3-fluorobenzyl)-7-(5-methyl-2-((1-methyl-1h-pyrazole-5-yl)amino)pyrimidin-4-yl)-3,4-dihydropyrrolo[1,2-a] pyrazine-1(2H)-one, reference compound]	
0.96	9.6	0.59	CC(C)Nc1cc(-c2cc3n(c2)CC(CO)(CO)CN(Cc2ccccc2CO)C3=O)c(Cl)cn1 [Example 27]	
0.9	56	0.6	CC(C)Nc1cc(-c2cc3n(c2)CCCN(Cc2ccccc2CO)C3=O)c(Cl)cn1 [Example 16, 8-(5-chloro-2-(isopropylamino)pyridin-4-yl)-2-(2-(hydroxylmethyl)benzyl)-2,3,4,5-tetrahydro-1h-pyrrolo [1,2-a][1,4]diazepine-1-one]	

Second part, the compound before the results:

SMILES	IC50 (ERK1) [nM]	IC50 (COLO205 cells; [1]) [nM]	IC50 (ERK2) [nM]	IC50 (COLO205 cells; 120 h incubation) [nM]
Cc1cnc(Nc2ccnn2C)nc1-c1cc2n(c1)CCN(Cc1cc(F)ccc1CO)C2=O [Example 23, 2-(5-Fluoro-2-(hydroxymethyl)benzyl)-7-(5-methyl-2-((1-methyl-1H-pyrazol-5-yl)amino)pyrimidin-4-yl)-3,4-dihydropyrrolo[1,2-a]pyrazine-1(2H)-one]	0.42	18.7	0.48	
CC(C)Nc1cc(-c2cc3n(c2)CC2(COC2)CN(Cc2cc(F)ccc2CO)C3=O)c(Cl)cn1 [Example 10, 8′-(5-chloro-2-(isopropylamino)pyridin-4-yl)-2′-(5-fluoro-2-(hydroxymethyl)benzyl)-2′,3′-dihydro-1′h,5′h-spiro[oxacyclobutane-3,4′-pyrrolo[1,2-a][1,4]diazepine]-1′-one]	0.89	16.7	0.87	
COC[C@H]1Cn2cc(-c3cc(Nc4cc(C)nn4C)ncc3Cl)cc2C(=O)N1Cc1cc(F)ccc1CO [Example 96, (R)-7-(5-chloro-2-((1,3-dimethyl-1h-pyrazole-5-yl)amino)pyridine-4-yl)-2-(5-fluoro-2-(hydroxymethyl)benzyl)-3-(methoxymethyl)-3,4-dihydropyrrolo[1,2-a] pyrazine-1(2H)-one]		11	1.8	
COC[C@H]1Cn2cc(-c3cc(Nc4cn(C)nc4C)ncc3Cl)cc2C(=O)N1Cc1cc(F)ccc1CO [Example 89, (R)-7-(5-chloro-2-((1,3-dimethyl-1h-pyrazole-4-yl)amino)pyridine-4-yl)-2-(5-fluoro-2-(hydroxymethyl)benzyl)-3-(methoxymethyl)-3,4-dihydropyrrolo[1,2-a] pyrazin-1(2H)-one]		12	1.1	
Cc1cnc(Nc2ccnn2C)nc1-c1c[nH]c(C(=O)NCc2cc(F)ccc2CO)c1 [Example 22, N-(5-fluoro-2-(hydroxymethyl)benzyl)-4-(5-methyl-2-((1-methyl-1H-pyrazol-5-yl)amino)pyrimidin-4-yl)-1H-pyrrole-2-carboxamide]	0.43	35.3	0.34	
CC(C)Nc1cc(-c2cc3n(c2)CCN(Cc2cccc(F)c2)C3=O)c(Cl)cn1 [Example D8, 7-(5-chloro-2-(isopropylamino)pyridin-4-yl)-2-(3-fluorobenzyl)-3,4-dihydropyrrolo[1,2-a] pyrazine-1(2H)-one, reference compound]		1630		
COC[C@H]1Cn2cc(-c3cc(Nc4ccn(C)n4)ncc3Cl)cc2C(=O)N1Cc1cc(F)ccc1CO [Example 86, (R)-7-(5-chloro-2-((1-methyl-1h-pyrazole-3-yl)amino)pyridine-4-yl)-2-(5-fluoro-2-(hydroxymethyl)benzyl)-3-(methoxymethyl)-3,4-dihydropyrrolo[1,2-a] pyrazine-1(2H)-one]	0.91	29.4	0.8	
COC[C@H]1Cn2cc(-c3cc(Nc4ccnn4CC(F)F)ncc3Cl)cc2C(=O)N1Cc1cc(F)ccc1CO [Example 115, (R)-7-(5-chloro-2-((1-(2,2-difluoroethyl)-1h-pyrazole-5-yl)amino)pyridine-4-yl)-2-(5-fluoro-2-(hydroxymethyl)benzyl)-3-(methoxymethyl)-3,4-dihydropyrrolo[1,2-a] pyrazine-1(2H)-one]	1.6	16.7	1.2	
CC(C)Nc1cc(-c2cc3n(c2)CCCN(Cc2cc(F)c(F)cc2CO)C3=O)c(Cl)cn1 [Example 21, 8-(5-chloro-2-(isopropylamino)pyridin-4-yl)-2-(4,5-difluoro-2-(hydroxymethyl)benzyl)-2,3,4,5-tetrahydro-1h-pyrrolo[1,2-a][1,4] diazepine-1-one]	0.73	73.3	0.76	
Cc1cnc(NC2CCOC2)nc1-c1cc2n(c1)CCN(Cc1cc(F)ccc1CO)C2=O (stereo not drawn) [Example 33, 2-(5-fluoro-2-(hydroxymethyl)benzyl)-7-(5-methyl-2-((tetrahydrofuran-3-yl)amino)pyrimidin-4-yl)-3,4-dihydropyrrolo[1,2-a]pyrazine-1(2H)-one]	0.45	76	0.4	
CC(C)Nc1cc(-c2cnn(C(=O)N[C@H](CO)c3cccc(Cl)c3)c2)c(Cl)cn1 [Example D2, (S)-4-(5-chloro-2-(isopropylamino)pyridin-4-yl)-N′-(1-(3-chlorophenyl)-2-hydroxyethyl)-1H-pyrazole-1-carboxamide, reference compound]				12200
CC(C)Nc1cc(-c2cc3n(c2)CCN(C(CO)c2cccc(C(F)(F)F)c2)C3=O)c(Cl)cn1 (stereo not drawn) [Example D1, reference compound]				7330
